Experimental data reported in ChEMBL document CHEMBL3886179, “Substituted 6, 7-dialkoxy-3-isoquinoline derivatives as inhibitors of phosphodiesterase 10 (PDE 10A)” (2015).

Biological target: cAMP and cAMP-inhibited cGMP 3',5'-cyclic phosphodiesterase 10A (Homo sapiens, UniProt Q9Y233)
Assay: Diaxonhit Phosphodiesterase Assay: The phosphodiesterase assay was developed using the LANCE cAMP kit (PerkinElmer). The assay buffer contained HBSS with 5 mM HEPES, 0.1% BSA, and 1.5 mM MgCl2, pH 7.4. PDE10A (BPS Bioscience) was used at 200 pg/well (with a specific activity of 3200 pmole/min/ug with assay conditions: 10 mM Tris-HCl, pH 7.4, 10 mM MgCl2, 1 mM MnCl2, 200 uM cAMP, 2.5 kU 5' nucleotidase, 37° C., 20 min) and PDE4D3 (BPS Bioscience) was used at 100 pg/well (with a specific activity of 32713 pmole/min/ug with assay conditions: 10 mM Tris-HCl, pH 7.4, 10 mM MgCl2, 1 mM MnCl2, 200 uM cAMP, 2.5 kU 5' nucleotidase, 37° C., 20 min). The Biotin-cAMP tracer, supplied in 10 mmol/L Tris-HCl buffered (pH 8.0) salt solution with 1 mmol/L ethylenediaminetetraacetic acid (EDTA), 0.1% bovine serum albumin (BSA), and 0.05% sodium azide, is used at a dilution of 1/375. The assay detection mixture contained the LANCE Eu-W8044 labeled streptavidin 1/2250 (supplied in 50 mmol/L Tris-HCl buffer).

Sequence of cAMP and cAMP-inhibited cGMP 3',5'-cyclic phosphodiesterase 10A (Q9Y233 whole entry): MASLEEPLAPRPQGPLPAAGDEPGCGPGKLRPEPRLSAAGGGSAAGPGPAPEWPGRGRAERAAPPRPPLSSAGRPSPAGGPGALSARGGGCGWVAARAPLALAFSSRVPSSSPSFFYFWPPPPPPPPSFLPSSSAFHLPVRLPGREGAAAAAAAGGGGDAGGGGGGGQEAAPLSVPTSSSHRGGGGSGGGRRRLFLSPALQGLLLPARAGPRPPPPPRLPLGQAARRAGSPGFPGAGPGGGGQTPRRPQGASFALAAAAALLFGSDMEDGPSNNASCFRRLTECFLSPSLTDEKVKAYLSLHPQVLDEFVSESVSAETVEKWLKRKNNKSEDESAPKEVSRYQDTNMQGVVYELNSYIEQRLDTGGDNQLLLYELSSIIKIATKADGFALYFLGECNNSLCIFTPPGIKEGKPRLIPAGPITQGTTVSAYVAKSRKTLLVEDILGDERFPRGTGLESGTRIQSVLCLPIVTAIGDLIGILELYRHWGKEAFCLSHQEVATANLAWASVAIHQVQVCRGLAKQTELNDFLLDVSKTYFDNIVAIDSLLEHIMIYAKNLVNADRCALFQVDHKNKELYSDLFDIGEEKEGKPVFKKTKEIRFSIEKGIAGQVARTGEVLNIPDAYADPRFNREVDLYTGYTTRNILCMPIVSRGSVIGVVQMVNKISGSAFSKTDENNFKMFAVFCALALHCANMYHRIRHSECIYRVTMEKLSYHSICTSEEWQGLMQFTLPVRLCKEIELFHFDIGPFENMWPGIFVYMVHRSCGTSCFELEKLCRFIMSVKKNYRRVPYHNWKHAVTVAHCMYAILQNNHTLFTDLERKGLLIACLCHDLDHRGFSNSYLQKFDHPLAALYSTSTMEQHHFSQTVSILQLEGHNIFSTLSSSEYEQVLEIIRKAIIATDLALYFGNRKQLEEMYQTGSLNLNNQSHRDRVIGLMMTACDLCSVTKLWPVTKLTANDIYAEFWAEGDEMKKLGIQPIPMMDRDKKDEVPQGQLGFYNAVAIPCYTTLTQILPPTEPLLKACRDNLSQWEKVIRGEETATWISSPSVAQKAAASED

| SMILES | IC50 [nM] |
| --- | --- |
| COCc1ncc(Cc2ccc3cccc(N)c3n2)c2cc(OC)c(OC)cc12 | 8.6 |
| COCc1ncc(Cc2cnc3ccc(O)c(C(F)(F)F)c3c2)c2cc(OC)c(OC)cc12 | 4.5 |
| COc1cc2cncc(Cc3ccc4nc(-c5ccc(CO)cc5)oc4c3)c2cc1OC | 20 |
| CCCc1ncc(Cc2ccc3cccc(NC(=O)CO)c3n2)c2cc(OC)c(OC)cc12 | 15 |
| COCc1ncc(Cc2ccc3cccc(OCCO)c3n2)c2cc(OC)c(OC)cc12 | 28 |
| COCc1ncc(Cc2ccc3cccc(O)c3n2)c2cc(OC)c(OC)cc12 | 19 |
| CCOC(=O)COc1cccc2ccc(Cc3cnc(COC)c4cc(OC)c(OC)cc34)nc12 | 71 |
| COCc1ncc(Cc2cnc3ccc(O)cc3c2)c2cc(OC)c(OC)cc12 | 5.6 |
| CCCc1ncc(Cc2cnc3ccc(O)c(C(F)(F)F)c3c2)c2cc(OC)c(OC)cc12 | 13 |
| COCc1ncc(Cc2ccc3cccc(OCC(N)=O)c3n2)c2cc(OC)c(OC)cc12 | 21 |
